We go through 1 molecule from paper PMC4815908 (Bioorganic & medicinal chemistry letters, 2015).

This experiment relates to P. falciparum 3D7 (chloroquine-sensitive). The experiment can be described thus: in vitro growth inhibition assay, P. falciparum 3D7. The format is cell-based. The conditions noted are these: Plasmodium falciparum, 3D7, read-out: IC50 ± SEM 3D7.

pIC50: −log10 of the molar value.

Take `[C-]#[N+]C(C)(C)C[C@@H]1C[C@H](C)[C@H]2CC[C@H](C)[C@@]3([N+]#[C-])CCC(=C)[C@@H]1[C@H]23` [compound 1, (−)-8,15-diisocyano-11(20)-amphilectene]: the pIC50 is 8.92.

By pIC50 is commonly meant the negative decadic logarithm of the IC50, by convention in mol/L.
